Earlier results as cited in patent publication US6703001B1, “Cosmetic and dermatological light-protective formulations containing triazine derivatives one or several esters of branched-chain carboxylic acids and branched-chain alcohols” (Beiersdorf AG, priority 1998, dated 2004).

## CCCCC(CC)COC(=O)c1ccc(Nc2nc(Nc3ccc(C(=O)OCC(CC)CCCC)cc3)nc(Nc3ccc(C(=O)OCC(CC)CCCC)cc3)n2)cc1 (stereo not drawn) [UVINUL7 T 150, tris(2-ethylhexyl) 4,4′,4″-(1,3,5-triazine-2,4,6-triyltriimino)trisbenzoate]
Corresponds to the about 15% by weight solubility in known solvents
  corresponding dissolved, and therefore active, UV filter substance: 1-1.5 % by weight
Known solvents for this UVB filter (lipids)
  maximum amount of the filter that known solvents can dissolve: about 15 % by weight
lipids
  solubility in lipids (in words): poor solubility in lipids
